The subject of one assay is mouse vas deferens. Briefly: mouse vas deferens adrenergic transmission test (MVD). Conditions: for IC50: inhibition of contractions in the MVD preparation in vitro, active at IC50 of 5.0 μM or less; for inhibition at 10 µM: read-out: MVD percent inhibition at a given dose level. It counts as cell-based. An excerpt:
Med. Assoc. 217, 1392 (1971)]. […] Opth. 7, 921-923 (1975); Green and Pederson, Effect of delta-9 Tetrahydrocannabinol on Aqueous Dynamics and Ciliary Body Permeability in the Rabbit Eye., Exptl. Eye Research 15, 499-507 (1973); Colasanti, Craig and Allara, Intraocular Pressure, Ocular Toxicity and Neurotoxicity after Administration of Cannabinol or Cannabigerol, Exptl. Eye Research 39, 252-259 (1984)]. Similarly, synthetic cannabinoids also reduce intraocular pressure [Green, Symunds, Oliver and Elijah, Intraocular Pressure Following Systemic Administration of Cannabinoids., Curr. […] Cannabinoid receptor binding sites can be defined as those to which radio-labelled 4-(1,1-dimethyl-heptyl)-2,3'-dihydroxy-6'alpha-(3-hydroxypropyl)-1',2',3',4',-5',6'-hexahydrobiphenyl (CP 55940) binds in a specific and saturable manner and the binding sites are heterogeneously distributed in the brain [Devane, Dysarz, Johnson, Melvin and Howlett, Determination and Characterization of a Cannabinoid Receptor in Rat Brain, Molecular Pharm 34, 605-613 (1988)]. Natural and synthetic cannabinoids and representative examples of the compounds of the present invention bind to CP 55940 binding sites. […] It is believed that agonist activity at the cannabinoid receptor mediates the anti-glaucoma actions of cannabinoids, and that agonist activity at this receptor correlates with ocular pressure lowering actions in man.
The compounds are identified by the Example or the Preparation number above where their preparations are described.

The target of assay [1] is T1, cannabinoid receptor (CP 55940 binding sites) (Rattus norvegicus, UniProt P20272).
T1 construct: from tissue; host or cells: rat brain membranes (inferred from the cited Devane et al. 1988)
Briefly: CP55940 binding assay (CP).

For assay [2] the following is noted: smoking (marijuana, man); topical application or systemic injection (delta-9 tetrahydrocannabinol; cited studies in man and rabbit); cited from earlier work.

Results on eleven molecules are retold here after patent publication US5112820A, “Anti-glaucoma compositions containing 2- and 3-aminomethyl-6-arylcarbonyl- or 6-phenylthio-2,3-dihydropyrrolo-(1,2,3-de)-1,4-benzoxazines and method of use thereof” (Sterling Drug Inc., priority 1990, dated 1992).

The structures appear in SMILES notation. Like-named read-outs stand apart in the source and are kept apart here.

T1 sequence (P20272 whole entry): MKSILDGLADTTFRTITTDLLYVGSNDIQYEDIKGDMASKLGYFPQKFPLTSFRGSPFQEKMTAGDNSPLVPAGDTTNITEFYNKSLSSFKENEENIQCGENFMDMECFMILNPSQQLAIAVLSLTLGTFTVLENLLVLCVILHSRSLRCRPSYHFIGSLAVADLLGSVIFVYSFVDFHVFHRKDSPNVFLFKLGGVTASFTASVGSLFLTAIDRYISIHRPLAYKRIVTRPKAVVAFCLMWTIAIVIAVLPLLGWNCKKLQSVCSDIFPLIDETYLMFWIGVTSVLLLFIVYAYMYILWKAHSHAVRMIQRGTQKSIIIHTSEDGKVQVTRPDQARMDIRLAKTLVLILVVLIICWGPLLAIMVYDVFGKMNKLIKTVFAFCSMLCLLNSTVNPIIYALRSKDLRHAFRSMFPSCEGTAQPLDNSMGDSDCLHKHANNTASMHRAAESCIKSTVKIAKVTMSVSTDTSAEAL

Broadly, the IC50 is the concentration that gives 50% inhibition. Molecule `Cc1c(C(=O)c2cccc3ccccc23)c2cccc3c2n1C(CN1CCOCC1)CO3` (single isomer, unassigned; (+)) [Ex. 2B (d), (+)-3-(4-morpholinylmethyl)-5-methyl-6-(1-naphthylcarbonyl)-2,3-dihydropyrrolo[1,2,3-de]-1,4-benzoxazine methanesulfonate] had an IC50 in the assay with mouse vas deferens (methanesulfonate) of 0.043 ± 0.0001 µM.

In the case of `COc1ccc(C(=O)c2c(C)n3c4c(cccc24)OCC3CN2CCOCC2)cc1` (single isomer, unassigned; (+)) [Ex. 2H (d)], the IC50 in assay [1] (CP55940 binding, read-out: CP IC50) stood at 0.199 µM.

For `Cc1c(Sc2ccccc2)c2cccc3c2n1C(CN1CCOCC1)CO3` (single isomer, unassigned; (+)) [Prep. 4B (d)], 0.07 µM corresponded to half-maximal inhibition in the assay on mouse vas deferens (IC50).

As for `Cc1c(C(=O)c2cccc3c(Br)cc(Br)cc23)c2cccc3c2n1C(CN1CCOCC1)CO3` (single isomer, unassigned; (-)) [Ex. 1E, (-)-3-(4-morpholinylmethyl)-5-methyl-6-(5,7-dibromonaphthylcarbonyl)-2,3-dihydropyrrolo[1,2,3-de]-1,4-benzoxazine methanesulfonate], the IC50 with mouse vas deferens (methanesulfonate) was 2.62 ± 1.7 µM.

In general, inhibition refers to the drop in the measured response relative to a control, in per cent. Consider `Cc1c(C(=O)c2cccc3ccccc23)c2cccc3c2n1C(CN1CCOCC1)CO3` (single isomer, unassigned; (-)) [Ex. 2B (1), (-)-3-(4-morpholinylmethyl)-5-methyl-6-(1-naphthylcarbonyl)-2,3-dihydropyrrolo[1,2,3-de]-1,4-benzoxazine methanesulfonate], for which the inhibition at 10 µM in the assay with mouse vas deferens (Mus musculus) was 37%.

As to `COc1ccc(C(=O)c2c(C)n3c4c(cccc24)OCC3CN2CCOCC2)cc1` (single isomer, unassigned; (-)) [Ex. 2H (1)], the inhibition at 10 µM in the assay on mouse vas deferens (Mus musculus) was 44%.

Turning to `Cc1c(Sc2ccccc2)c2cccc3c2n1C(CN1CCOCC1)CO3` (single isomer, unassigned; (-)) [Prep. 4B (1)], in the assay with mouse vas deferens, inhibition was half-maximal at 0.69 µM (IC50).

`CCc1c(C(=O)c2ccc(OC)cc2)c2cccc3c2n1C(CN1CCOCC1)CO3` (centres unmarked) [Ex. 2A]: the inhibition at 10 µM in the assay with mouse vas deferens (Mus musculus) worked out at 27%.

In the case of `Cc1c(C(=O)c2cccc3ccccc23)c2cccc3c2n1CC(CN1CCOCC1)O3` (centres unmarked) [Ex. 2I, 2-(4-morpholinylmethyl)-5-methyl-6-(1-naphthylcarbonyl)2,3-dihydropyrrolo[1,2,3-de]-1,4-benzoxazine], the IC50 in assay [1] (CP IC50, CP55940 binding) is ~0.01 µM.

Regarding `Cc1c(Sc2ccccc2)c2cccc3c2n1C(CN1CCOCC1)CO3` (centres unmarked) [Prep. 4A (d,1)], the IC50 in the assay with mouse vas deferens (Mus musculus) is > 10 µM.

As to `CCCCCc1cc(O)c2c(c1)OC(C)(C)[C@@H]1CCC(C)=C[C@@H]21` [delta-9 tetrahydrocannabinol], the “effect on intraocular pressure” value in assay [2] was “reduces intraocular pressure”.
